Data reported in PubChem BioAssay AID1259407 (Chemical Carcinogenesis Research Information System (CCRIS), 2018).
Activity calls are given as the source filed them. The rule behind the calls is not given here.

System: CCRIS mutagenicity, Ames/micronucleus/aberration tests
Experiment: CCRIS mutagenicity studies

For `Cc1ccc(N)cc1`, the mutagenic call (Test System: AMES SALMONELLA TYPHIMURIUM, Strain/Indicator: TA97, Metabolic Activation: HAMSTER, LIVER, S-9, AROCLOR 1254 (10%), Method: PREINCUBATION) was “inactive; negative”, the mutagenic call (Test System: AMES SALMONELLA TYPHIMURIUM, Strain/Indicator: TA97, Metabolic Activation: HAMSTER, LIVER, S-9, AROCLOR 1254 (30%), Method: PREINCUBATION) was “inactive; negative” and the mutagenic call (Test System: AMES SALMONELLA TYPHIMURIUM, Strain/Indicator: TA97, Metabolic Activation: NONE, Method: PREINCUBATION) was “inactive; negative”. The mutagenic call (Test System: AMES SALMONELLA TYPHIMURIUM, Strain/Indicator: TA97, Metabolic Activation: RAT, LIVER, S-9, AROCLOR 1254 (10%), Method: PREINCUBATION) was “inactive; negative”, the mutagenic call (Test System: AMES SALMONELLA TYPHIMURIUM, Strain/Indicator: TA97, Metabolic Activation: RAT, LIVER, S-9, AROCLOR 1254 (30%), Method: PREINCUBATION) was “inactive; negative” and the mutagenic call (Test System: AMES SALMONELLA TYPHIMURIUM, Strain/Indicator: TA98, Metabolic Activation: HAMSTER, LIVER, S-9, AROCLOR 1254 (10%), Method: PREINCUBATION) was “inactive; negative”. For the same compound, the mutagenic call (Test System: AMES SALMONELLA TYPHIMURIUM, Strain/Indicator: TA98, Metabolic Activation: HAMSTER, LIVER, S-9, AROCLOR 1254 (30%), Method: PREINCUBATION) was “inactive; negative”, the mutagenic call (Test System: AMES SALMONELLA TYPHIMURIUM, Strain/Indicator: TA98, Metabolic Activation: HAMSTER, LIVER, S-9, SODIUM PHENOBARBITAL AND 5,6-BENZOFLAVONE, Method: PREINCUBATION) was “inactive; negative” and the mutagenic call (Test System: AMES SALMONELLA TYPHIMURIUM, Strain/Indicator: TA98, Metabolic Activation: NONE, Method: PREINCUBATION) was “inactive; negative”. The mutagenic call (Test System: AMES SALMONELLA TYPHIMURIUM, Strain/Indicator: TA98, Metabolic Activation: RAT LIVER S-9, PHENOBARBITAL AND BETA-NAPHTHOFLAVONE, Method: PREINCUBATION) was “inactive; negative”, the mutagenic call (Test System: AMES SALMONELLA TYPHIMURIUM, Strain/Indicator: TA98, Metabolic Activation: RAT, LIVER, S-9, AROCLOR 1254 (10%), Method: PREINCUBATION) was “inactive; negative” and the mutagenic call (Test System: AMES SALMONELLA TYPHIMURIUM, Strain/Indicator: TA98, Metabolic Activation: RAT, LIVER, S-9, AROCLOR 1254 (30%), Method: PREINCUBATION) was “inactive; negative”. For the same compound, the mutagenic call (Test System: AMES SALMONELLA TYPHIMURIUM, Strain/Indicator: TA100, Metabolic Activation: HAMSTER, LIVER, S-9, AROCLOR 1254 (10%), Method: PREINCUBATION) was “inactive; negative”, the mutagenic call (Test System: AMES SALMONELLA TYPHIMURIUM, Strain/Indicator: TA100, Metabolic Activation: HAMSTER, LIVER, S-9, AROCLOR 1254 (30%), Method: PREINCUBATION) was “active; positive” and the mutagenic call (Test System: AMES SALMONELLA TYPHIMURIUM, Strain/Indicator: TA100, Metabolic Activation: HAMSTER, LIVER, S-9, SODIUM PHENOBARBITAL AND 5,6-BENZOFLAVONE, Method: PREINCUBATION) was “inactive; negative”. The mutagenic call (Test System: AMES SALMONELLA TYPHIMURIUM, Strain/Indicator: TA100, Metabolic Activation: NONE, Method: PREINCUBATION) was “inactive; negative”, the mutagenic call (Test System: AMES SALMONELLA TYPHIMURIUM, Strain/Indicator: TA100, Metabolic Activation: RAT LIVER S-9, PHENOBARBITAL AND BETA-NAPHTHOFLAVONE, Method: PREINCUBATION) was “inactive; negative” and the mutagenic call (Test System: AMES SALMONELLA TYPHIMURIUM, Strain/Indicator: TA100, Metabolic Activation: RAT, LIVER, S-9, AROCLOR 1254 (10%), Method: PREINCUBATION) was “inactive; negative”. For the same compound, the mutagenic call (Test System: AMES SALMONELLA TYPHIMURIUM, Strain/Indicator: TA100, Metabolic Activation: RAT, LIVER, S-9, AROCLOR 1254 (30%), Method: PREINCUBATION) was “inactive; negative”, the mutagenic call (Test System: AMES SALMONELLA TYPHIMURIUM, Strain/Indicator: TA102, Metabolic Activation: HAMSTER, LIVER, S-9, SODIUM PHENOBARBITAL AND 5,6-BENZOFLAVONE, Method: PREINCUBATION) was “inactive; negative” and the mutagenic call (Test System: AMES SALMONELLA TYPHIMURIUM, Strain/Indicator: TA102, Metabolic Activation: NONE, Method: PREINCUBATION) was “inactive; negative”. The mutagenic call (Test System: AMES SALMONELLA TYPHIMURIUM, Strain/Indicator: TA104, Metabolic Activation: HAMSTER, LIVER, S-9, SODIUM PHENOBARBITAL AND 5,6-BENZOFLAVONE, Method: PREINCUBATION) was “inactive; negative”, the mutagenic call (Test System: AMES SALMONELLA TYPHIMURIUM, Strain/Indicator: TA104, Metabolic Activation: NONE, Method: PREINCUBATION) was “inactive; negative” and the mutagenic call (Test System: AMES SALMONELLA TYPHIMURIUM, Strain/Indicator: TA1535, Metabolic Activation: HAMSTER, LIVER, S-9, AROCLOR 1254 (10%), Method: PREINCUBATION) was “inactive; negative”. The mutagenic call (Test System: AMES SALMONELLA TYPHIMURIUM, Strain/Indicator: TA1535, Metabolic Activation: HAMSTER, LIVER, S-9, AROCLOR 1254 (30%), Method: PREINCUBATION) was “inactive; negative”, the mutagenic call (Test System: AMES SALMONELLA TYPHIMURIUM, Strain/Indicator: TA1535, Metabolic Activation: HAMSTER, LIVER, S-9, SODIUM PHENOBARBITAL AND 5,6-BENZOFLAVONE, Method: PREINCUBATION) was “inactive; negative” and the mutagenic call (Test System: AMES SALMONELLA TYPHIMURIUM, Strain/Indicator: TA1535, Metabolic Activation: NONE, Method: PREINCUBATION) was “inactive; negative”. For the same compound, the mutagenic call (Test System: AMES SALMONELLA TYPHIMURIUM, Strain/Indicator: TA1535, Metabolic Activation: RAT LIVER S-9, PHENOBARBITAL AND BETA-NAPHTHOFLAVONE, Method: PREINCUBATION) was “inactive; negative”, the mutagenic call (Test System: AMES SALMONELLA TYPHIMURIUM, Strain/Indicator: TA1535, Metabolic Activation: RAT, LIVER, S-9, AROCLOR 1254 (10%), Method: PREINCUBATION) was “inactive; negative” and the mutagenic call (Test System: AMES SALMONELLA TYPHIMURIUM, Strain/Indicator: TA1535, Metabolic Activation: RAT, LIVER, S-9, AROCLOR 1254 (30%), Method: PREINCUBATION) was “inactive; negative”. The mutagenic call (Test System: AMES SALMONELLA TYPHIMURIUM, Strain/Indicator: TA1537, Metabolic Activation: HAMSTER, LIVER, S-9, SODIUM PHENOBARBITAL AND 5,6-BENZOFLAVONE, Method: PREINCUBATION) was “inactive; negative”, the mutagenic call (Test System: AMES SALMONELLA TYPHIMURIUM, Strain/Indicator: TA1537, Metabolic Activation: NONE, Method: PREINCUBATION) was “inactive; negative” and the mutagenic call (Test System: AMES SALMONELLA TYPHIMURIUM, Strain/Indicator: TA1537, Metabolic Activation: RAT LIVER S-9, PHENOBARBITAL AND BETA-NAPHTHOFLAVONE, Method: PREINCUBATION) was “inactive; negative”. The mutagenic call (Test System: E. COLI, Strain/Indicator: WP2UVRA/PKM101, Metabolic Activation: HAMSTER, LIVER, S-9, SODIUM PHENOBARBITAL AND 5,6-BENZOFLAVONE, Method: PREINCUBATION) was “inactive; negative”, the mutagenic call (Test System: E. COLI, Strain/Indicator: WP2UVRA/PKM101, Metabolic Activation: NONE, Method: PREINCUBATION) was “inactive; negative” and the mutagenic call (Test System: E. COLI, Strain/Indicator: WP2UVRA, Metabolic Activation: HAMSTER, LIVER, S-9, SODIUM PHENOBARBITAL AND 5,6-BENZOFLAVONE, Method: PREINCUBATION) was “inactive; negative”. For the same compound, the mutagenic call (Test System: E. COLI, Strain/Indicator: WP2 UVRA, Metabolic Activation: NONE, Method: FLUCTUATION TEST) was “inactive; negative”, the mutagenic call (Test System: E. COLI, Strain/Indicator: WP2UVRA, Metabolic Activation: NONE, Method: PREINCUBATION) was “inactive; negative” and the mutagenic call (Test System: E.COLI, Strain/Indicator: WP2UVRA, Metabolic Activation: NONE, Method: PREINCUBATION) was “inactive; negative”. The mutagenic call (Test System: E.COLI, Strain/Indicator: WP2UVRA, Metabolic Activation: RAT LIVER S-9, PHENOBARBITAL AND BETA-NAPHTHOFLAVONE, Method: PREINCUBATION) was “inactive; negative”.
`O=c1cccc2cc(O)c(O)c(O)c2c1O` was tested, and the mutagenic call (Test System: AMES SALMONELLA TYPHIMURIUM, Strain/Indicator: TA2638, Metabolic Activation: S-9, Method: STANDARD PLATE) was “inactive; negative”.
`Clc1cc2c3ccccc3ccc2c2ccccc12` was tested, and the mutagenic call (Test System: AMES SALMONELLA TYPHIMURIUM, Strain/Indicator: TA98, Metabolic Activation: RAT, LIVER, S-9, AROCLOR 1254, Method: STANDARD PLATE) was “inactive; negative” and the mutagenic call (Test System: AMES SALMONELLA TYPHIMURIUM, Strain/Indicator: TA100, Metabolic Activation: RAT, LIVER, S-9, AROCLOR 1254, Method: STANDARD PLATE) was “active; positive”.
